In the assay the target is T1, human PD-1 (Jurkat-PD-1 cells) / PE-labeled human PD-L1-Ig (Homo sapiens, UniProt Q15116).
T1 construct: expressed in transfected cells; host or cells: Jurkat cell line over-expressing human PD-1
As to the kind of experiment: Jurkat-PD-1 Cell Binding High-Content Screening Assay (CBA); Jurkat hPD1-PDL1 assay. To be noted: Jurkat cell line over-expressing human PD-1; PE-labeled PD-L1-Ig 20 nM final; compound incubated 2 hours at 37° C.; read-out: Jurkat HPD1-PDL1 IC50. In short, it runs like this:
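Jurkat-hPD-1 cells; cpd 2 h, 37° C; then PE-PD-L1-Ig 20 nM final in DMEM/10% FCS; high-content imaging read-out.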

Starred links: 1 amine or outer side, 2 acyl side, 3 side chain; linkers in the order of their positions; H or OH if unused. Positions of bridges follow the written chain, without caps; N, C: chain ends. Non-standard residues stand in square brackets, D forms with d. Residues, ends and D or L forms follow the SMILES beside them. ξ: configuration not given here. Ala(1H-tetrazol-5-yl) = N[C@@H](Cc1nnn[nH]1)C(=O)O; Phe(3,4,5-F3) = N[C@@H](Cc1cc(F)c(F)c(F)c1)C(=O)O; Bip = N[C@@H](Cc1ccc(-c2ccccc2)cc1)C(=O)O; Phe(3-Cl) = N[C@@H](Cc1cccc(Cl)c1)C(=O)O; Ala(cPent) = N[C@@H](CC1CCCC1)C(=O)O; NMeF = CN[C@@H](Cc1ccccc1)C(=O)O; X2 = O=C([C@H]1COCCN1[*:1])[*:2]; Aad = N[C@@H](CCCC(=O)O)C(=O)O; Cha = N[C@@H](CC1CCCCC1)C(=O)O; ξR = N=C(N)NCCCC(N)C(=O)O; NMeA = CN[C@@H](C)C(=O)O; Orn = NCCC[C@H](N)C(=O)O; Dab = NCC[C@H](N)C(=O)O; ξV = CC(C)C(N)C(=O)O; Sar = CNCC(=O)O

As usually defined, the IC50 is the concentration needed to halve the response being measured.

T1 sequence (Q15116 25-288): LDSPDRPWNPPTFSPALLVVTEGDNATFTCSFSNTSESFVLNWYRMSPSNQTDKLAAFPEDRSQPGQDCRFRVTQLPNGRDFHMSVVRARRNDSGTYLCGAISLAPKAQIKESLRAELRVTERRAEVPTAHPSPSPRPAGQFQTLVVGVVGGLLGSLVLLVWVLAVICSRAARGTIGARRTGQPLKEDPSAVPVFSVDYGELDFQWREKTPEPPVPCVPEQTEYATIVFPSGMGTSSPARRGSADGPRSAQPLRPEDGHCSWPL

For the molecule `CC(C)C[C@@H]1NC(=O)[C@H](Cc2c[nH]c3ccccc23)NC(=O)[C@H](Cc2nn[nH]n2)NC(=O)[C@H](Cc2ccc(O)cc2)NC(=O)[C@H](Cc2ccccc2)NC(=O)CSC[C@@H](C(=O)N[C@@H](C)C(N)=O)NC(=O)[C@H](CO)NC(=O)[C@H](C(C)C)NC(=O)[C@H](CC(C)C)NC(=O)[C@H](CC(N)=O)NC(=O)[C@H]2CCCN2C(=O)[C@H](C)N(C)C(=O)[C@H](C(C)C)NC(=O)[C@H](Cc2ccc(-c3ccccc3)cc2)NC1=O` [Example 1428] ({CH2CO}-FY[Ala(1H-tetrazol-5-yl)]WL[Bip]V[NMeA][dP]NLVSCA-NH2; thioether N-14), the IC50 turned out to be 370 nM.

For the molecule `CC(C)C[C@@H]1NC(=O)[C@H](CCCNC(=N)N)NC(=O)[C@H](Cc2ccccc2)N(C)C(=O)[C@H](C)N(C)C(=O)[C@H](CCC(=O)O)NC(=O)[C@H](Cc2ccc(-c3ccccc3)cc2)NC(=O)[C@H](C(C)C)NC(=O)[C@H](Cc2c[nH]c3ccccc23)NC(=O)[C@H](CC(=O)O)NC(=O)[C@H](Cc2ccc(O)cc2)NC(=O)[C@H](Cc2ccccc2)NC(=O)CSC[C@@H](C(=O)NCC(N)=O)NC(=O)[C@H](CO)NC(=O)[C@H](C(C)C)NC1=O` [Example 1214] ({CH2CO}-FYDWV[Bip]E[NMeA][NMeF]RLVSCG-NH2; thioether N-14), the half-maximal inhibitory concentration (IC50) is 60 nM.

Take `CC(C)C[C@@H]1NC(=O)[C@H](CCCNC(=N)N)NC(=O)[C@H](Cc2ccccc2)N(C)C(=O)[C@H](C)N(C)C(=O)[C@H](CCCNC(=N)N)NC(=O)[C@H](Cc2ccc(-c3ccccc3)cc2)NC(=O)[C@H](C(C)C)NC(=O)[C@H](Cc2cccc(Cl)c2)NC(=O)[C@H](CC(=O)O)NC(=O)[C@H](Cc2ccc(O)cc2)NC(=O)[C@H](Cc2ccccc2)NC(=O)CSC[C@@H](C(=O)NCC(N)=O)NC(=O)[C@H](CO)NC(=O)[C@H](C(C)C)NC1=O` [Example 1241] ({CH2CO}-FYD[Phe(3-Cl)]V[Bip]R[NMeA][NMeF]RLVSCG-NH2; thioether N-14): the half-inhibitory concentration (IC50) stood at 270 nM.

As to `CC(C)C[C@@H]1NC(=O)[C@H](CC(N)=O)NC(=O)CN(C)C(=O)[C@H](C)N(C)C(=O)[C@H](C(C)C)NC(=O)[C@H](Cc2ccc(-c3ccccc3)cc2)NC(=O)[C@H](CC2CCCC2)NC(=O)[C@H](Cc2c[nH]c3ccccc23)NC(=O)[C@H](CC(=O)O)NC(=O)[C@H](Cc2ccc(O)cc2)NC(=O)[C@H](Cc2ccccc2)NC(=O)CSC[C@@H](C(=O)N[C@@H](C)C(N)=O)NC(=O)[C@H](CO)NC(=O)[C@H](C(C)C)NC1=O` [Example 1147] ({CH2CO}-FYDW[Ala(cPent)][Bip]V[NMeA][Sar]NLVSCA-NH2; thioether N-14), the 50% inhibitory concentration (IC50) is 660 nM.

`CC(C)C[C@@H]1NC(=O)C(CCCNC(=N)N)NC(=O)[C@H](Cc2ccccc2)N(C)C(=O)[C@H](CCCCN)NC(=O)[C@H](CCCNC(=N)N)NC(=O)[C@H](Cc2ccc(-c3ccccc3)cc2)NC(=O)[C@H](C(C)C)NC(=O)[C@H](Cc2c[nH]c3ccccc23)NC(=O)[C@H](CC(=O)O)NC(=O)[C@H](Cc2ccc(O)cc2)NC(=O)[C@H](Cc2ccccc2)NC(=O)CSC[C@@H](C(=O)NCC(N)=O)NC(=O)[C@H](CO)NC(=O)[C@H](C(C)C)NC1=O` (stereo partly drawn) [Example 1216] ({CH2CO}-FYDWV[Bip]RK[NMeF][ξR]LVSCG-NH2; thioether N-14): the IC50 was 90 nM.

For the molecule `CC(C)C[C@@H]1NC(=O)[C@H](CCCCN)NC(=O)[C@H](Cc2ccccc2)N(C)C(=O)[C@H](C)N(C)C(=O)[C@H](CCCNC(=N)N)NC(=O)[C@H](Cc2ccc(-c3ccccc3)cc2)NC(=O)[C@H](C(C)C)NC(=O)[C@H](Cc2c[nH]c3ccccc23)NC(=O)[C@H](CC(=O)O)NC(=O)[C@H](Cc2ccc(O)cc2)NC(=O)[C@H](CC(N)=O)NC(=O)CSC[C@@H](C(=O)N[C@@H](CO)C(N)=O)NC(=O)[C@H]([C@@H](C)O)NC(=O)[C@H](C(C)C)NC1=O` [Example 1354] ({CH2CO}-NYDWV[Bip]R[NMeA][NMeF]KLVTCS-NH2; thioether N-14), the IC50 turned out to be 210 nM.

As for `CC(C)C[C@@H]1NC(=O)[C@H](CCN)NC(=O)[C@H](Cc2ccccc2)N(C)C(=O)[C@H](C)N(C)C(=O)[C@H](CCCNC(=N)N)NC(=O)[C@H](Cc2ccc(-c3ccccc3)cc2)NC(=O)[C@H](C(C)C)NC(=O)[C@H](Cc2c[nH]c3ccccc23)NC(=O)[C@H](CC(=O)O)NC(=O)[C@H](Cc2ccc(O)cc2)NC(=O)[C@H](Cc2cnc[nH]2)NC(=O)CSC[C@@H](C(=O)N[C@@H](C)C(N)=O)NC(=O)[C@H](CO)NC(=O)[C@H](C(C)C)NC1=O` [Example 1316] ({CH2CO}-HYDWV[Bip]R[NMeA][NMeF][Dab]LVSCA-NH2; thioether N-14), the IC50 is 80 nM.

As for `CC(C)C[C@@H]1NC(=O)[C@H](Cc2c[nH]c3ccccc23)NC(=O)[C@H](CC(=O)O)NC(=O)[C@H](Cc2ccc(O)cc2)NC(=O)[C@H](Cc2ccccc2)NC(=O)CSC[C@@H](C(=O)N[C@@H](C)C(N)=O)NC(=O)[C@H](CO)NC(=O)[C@H](C(C)C)NC(=O)[C@H](CC(C)C)NC(=O)[C@H](CC(N)=O)NC(=O)[C@H]2COCCN2C(=O)[C@H](C)N(C)C(=O)[C@H](C(C)C)NC(=O)[C@H](Cc2ccc(-c3ccccc3)cc2)NC1=O` [Example 1044] ({CH2CO}-FYDWL[Bip]V[NMeA][X2]NLVSCA-NH2; thioether N-14), the IC50 amounted to 80 nM.

For the molecule `CC(C)C[C@@H]1NC(=O)[C@H](CCCNC(=N)N)NC(=O)[C@H](Cc2ccccc2)N(C)C(=O)[C@H](C)N(C)C(=O)[C@H](CCCNC(=N)N)NC(=O)[C@H](Cc2ccc(-c3ccccc3)cc2)NC(=O)[C@H](C(C)C)NC(=O)[C@H](Cc2c[nH]c3ccccc23)NC(=O)[C@H](CC(=O)O)NC(=O)[C@H](Cc2ccc(O)cc2)NC(=O)[C@H](Cc2c[nH]c3ccccc23)NC(=O)CSC[C@@H](C(=O)NCC(N)=O)NC(=O)[C@H](CO)NC(=O)[C@H](C(C)C)NC1=O` [Example 1157] ({CH2CO}-WYDWV[Bip]R[NMeA][NMeF]RLVSCG-NH2; thioether N-14), the IC50 amounted to 830 nM.

With `CC(C)C[C@@H]1NC(=O)[C@H](Cc2c[nH]c3ccccc23)NC(=O)[C@H](CC(=O)O)NC(=O)[C@H](Cc2ccc(O)cc2)NC(=O)[C@H](Cc2cc(F)c(F)c(F)c2)NC(=O)CSC[C@@H](C(=O)NCC(N)=O)NC(=O)[C@H](CO)NC(=O)[C@H](C(C)C)NC(=O)[C@H](CC(C)C)NC(=O)[C@H](CC(N)=O)NC(=O)CN(C)C(=O)[C@H](C)N(C)C(=O)[C@H](C(C)C)NC(=O)[C@H](Cc2ccc(-c3ccccc3)cc2)NC1=O` [Example 1098] ({CH2CO}-[Phe(3,4,5-F3)]YDWL[Bip]V[NMeA][Sar]NLVSCG-NH2; thioether N-14), the 50% inhibitory concentration (IC50) stood at 310 nM.

In the case of `CC(C)C[C@@H]1NC(=O)[C@H](Cc2c[nH]c3ccccc23)NC(=O)[C@H](CC(=O)O)NC(=O)[C@H](Cc2cnc[nH]2)NC(=O)[C@H](Cc2ccccc2)NC(=O)CSC[C@@H](C(=O)NCC(N)=O)NC(=O)[C@H](CO)NC(=O)[C@H](C(C)C)NC(=O)[C@H](CC(C)C)NC(=O)[C@H](CC(N)=O)NC(=O)CN(C)C(=O)[C@H](C)N(C)C(=O)[C@H](C(C)C)NC(=O)[C@H](Cc2ccc(-c3ccccc3)cc2)NC1=O` [Example 1153] ({CH2CO}-FHDWL[Bip]V[NMeA][Sar]NLVSCG-NH2; thioether N-14), the half-inhibitory concentration (IC50) was 760 nM.

As to `CC(C)C[C@@H]1NC(=O)[C@H](Cc2c[nH]c3ccccc23)NC(=O)[C@H](CC(=O)O)NC(=O)[C@H](Cc2ccc(O)cc2)NC(=O)[C@H](Cc2ccccc2)NC(=O)CSC[C@@H](C(=O)N[C@@H](C)C(N)=O)NC(=O)[C@H](CO)NC(=O)[C@H](C(C)C)NC(=O)[C@H](CC(C)C)NC(=O)[C@H](CC(N)=O)NC(=O)CN(C)C(=O)[C@H](C)N(C)C(=O)[C@H](CCCC(=O)O)NC(=O)[C@H](Cc2ccc(-c3ccccc3)cc2)NC1=O` [Example 1092] ({CH2CO}-FYDWL[Bip][Aad][NMeA][Sar]NLVSCA-NH2; thioether N-14), the IC50 amounted to 260 nM.

With `CC(C)C[C@@H]1NC(=O)[C@H](CCCNC(=N)N)NC(=O)[C@H](Cc2ccccc2)N(C)C(=O)[C@H](C)N(C)C(=O)[C@H](CCCNC(=N)N)NC(=O)[C@H](Cc2ccc(-c3ccccc3)cc2)NC(=O)[C@H](C(C)C)NC(=O)[C@H](Cc2c[nH]c3ccccc23)NC(=O)[C@H](CC(=O)O)NC(=O)[C@H](Cc2ccc(O)cc2)NC(=O)[C@H](Cc2ccccc2)NC(=O)CSC[C@@H](C(=O)N[C@@H](C)C(N)=O)NC(=O)[C@H](CO)NC(=O)[C@H](C(C)C)NC1=O` [Example 1074] ({CH2CO}-FYDWV[Bip]R[NMeA][NMeF]RLVSCA-NH2; thioether N-14), the IC50 stood at 190 nM.

Regarding `CC(C)C[C@@H]1NC(=O)[C@H](Cc2c[nH]c3ccccc23)NC(=O)[C@H](CC(=O)O)NC(=O)[C@H](Cc2ccc(O)cc2)NC(=O)[C@H](Cc2ccccc2)NC(=O)CSC[C@@H](C(=O)NCC(N)=O)NC(=O)[C@H](CO)NC(=O)[C@H](C(C)C)NC(=O)[C@H](CC(C)C)NC(=O)[C@H](CCC(N)=O)NC(=O)CN(C)C(=O)[C@H](C)N(C)C(=O)[C@H](C(C)C)NC(=O)[C@H](Cc2ccc(-c3ccccc3)cc2)NC1=O` [Example 1072] ({CH2CO}-FYDWL[Bip]V[NMeA][Sar]QLVSCG-NH2; thioether N-14), the IC50 turned out to be 190 nM.

Consider `CC(C)C1NC(=O)[C@H](Cc2c[nH]c3ccccc23)NC(=O)[C@H](CC(=O)O)NC(=O)[C@H](Cc2ccc(O)cc2)NC(=O)[C@H](CC(N)=O)NC(=O)CSC[C@@H](C(=O)N[C@@H](C)C(N)=O)NC(=O)[C@H]([C@@H](C)O)NC(=O)[C@H](C(C)C)NC(=O)[C@H](CC2CCCCC2)NC(=O)[C@H](CCN)NC(=O)[C@H](Cc2ccccc2)N(C)C(=O)[C@H](CCCN)NC(=O)[C@H](CCC(=O)O)NC(=O)[C@H](Cc2ccc(-c3ccccc3)cc2)NC1=O` (stereo partly drawn) [Example 1441] ({CH2CO}-NYDW[ξV][Bip]E[Orn][NMeF][Dab][Cha]VTCA-NH2; thioether N-14), for which the half-maximal inhibitory concentration (IC50) is 60 nM.

The values are drawn from patent US20240360178A1, “MACROCYCLIC IMMUNOMODULATORS” (Bristol-Myers Squibb Company, priority 2021, published 2024).
